{"source": "patent US9387170B2", "about": "“Drug having regulatory cell ligand contained in liposome” (RIKEN, priority 2004, dated 2016)", "key": {"NKT cells": {"system": "NKT cells", "details": "cited from earlier work"}, "IgE antibody production [1]": {"system": "IgE antibody production", "details": "administered to C57BL/6 mice; cited from earlier work"}, "antibody production [2]": {"system": "antibody production", "assay": "In vivo antibody production system using BDF1 mice", "details": "2 μg/mouse intraperitoneal, days 0, 14, 55 and 64", "method": "Saline, α-GalCer, Lipo-(−) or Lipo-αGC (2 μg/mouse) was intraperitoneally administered in BDF1 mice (C57BL/6×DBA/2F1) (5 mice/group), after 3 days (day 0), which were primarily immunized with DNP-OVA and alum, and further the mice was boosted with DNP-OVA alone on the 55th day (day 55) after the primary immunization. On days 0, 14, 55 and 64, the blood was collected from the orbital venous plexus, and antibody titers of ant-DNP-IgE, anti-DNP-IgG1, anti-DNP-IgG2a, and the levels of total IgE, total IgG1 and total IgG2a in the plasma were measured by ELISA."}, "[3]": {"system": "spleen whole cells from Vα14-NKT cell-deficient mouse", "assay": "Cytokine production in spleen whole cells from Vα14-NKT cell-deficient mouse", "type": "cell-based, Vα14-NKT cell-deficient mouse (C57BL/6 background)", "details": "100 ng/mL, 2 days", "method": "(§1) Spleen whole cells at 2×10^5 from C57BL/6 mouse were suspended in 200 μL of 10% fetal calf serum (FCS)-containing RPMI medium to which 100 ng/mL Lipo-(−), Lipo-αGC or α-galactosyl ceramide aqueous solution (α-GalCer) had been added, then the cell suspension was added to a 96-well U bottom culture plate, and cultured in the incubator containing 5% CO2 at 37° C. for 2 days. The levels of IFN-γ, IL-4 and IL-10 produced in the culture supernatant were measured by ELISA (FIG. 7 upper panels). The levels of IFN-γ and IL-4 were equivalent in Lipo-αGC group and αGalCer group, but the level of IL-10 in the Lipo-α group was 5 times higher than that in the α-GalCer group. When the same experiments were performed in the presence of anti-CD1d neutralization antibody (1B1, BD Bioscience PharMingen) at a final concentration of 10 μg/mL or using spleen whole cells from Vα14-NKT cell-deficient mouse (C57BL/6 background), IFN-γ, IL-4 and IL-10 in the culture supernatant were not detected (FIG. 7, lower panels)."}, "spleen whole cells": {"system": "spleen whole cells", "assay": "Cytokine production by Lipo-αGC in spleen whole cells", "type": "cell-based, C57BL/6 mouse", "method": "as §1"}, "[4]": {"system": "spleen dendritic cells (CD45RB/CD11c)", "assay": "Analysis of dendritic cells in spleen of administered mice by flow cytometry", "type": "in vivo, BALB/c mice", "details": "2 μg/mouse intraperitoneal, after 3 days", "method": "Saline, α-GalCer, Lipo-(−) or Lipo-αGC (2 μg/mouse) was intraperitoneally administered in BALB/c mice, and after 3 days, the spleen was removed. Collagenase D (1 mg/mL, Roche) was injected into the spleen, which was then incubated in the CO2 incubator for 45 minutes. Subsequently, cells were collected from the spleen, suspended in 3 mL of HistoDenz (14.1%, SIGMA-Aldrich), and then the X-VIVO 15 medium (CAMBREX Bio Science Walkerville, Inc.) containing 50 μM 2-mercaptoethanol (2ME) was overlaid thereon. After centrifuging at 1,500 rpm for 5 minutes, the cells in the intermediate layer were collected. The cells were washed with the X-VIVO 15 medium containing 50 μm 2ME and 10% FCS, and suspended in phosphate buffered saline (PBS) containing 0.5% FCS. Biotinylated anti-CD3, -CD11b, -CD19, -CD49b, -Gr-1, -TER-119 and -B220 antibodies (all from BD Bioscience Pharmingen) were added to the cell suspension. The cells were incubated at 10° C. for 20 minutes, then washed once with PBS containing 0.5% FCS, and subsequently streptoavidin (SA)-conjugated magnetic beads (Miltenyi) were added thereto. […] The resulting cells were stained with PE-labeled anti-CD11c antibody (BD Bioscience Pharmingen) and APC-labeled anti-CD45RB antibody (BD Bioscience Pharmingen), and analyzed by flow cytometry. […]"}, "type I diabetes model": {"system": "type I diabetes model", "details": "administered to NOD mice; cited from earlier work"}, "spleen CD4+ T cells": {"system": "spleen CD4+ T cells", "assay": "T cell activation ability using BDF1 mice (MTT proliferation of spleen CD4+ T cells)", "type": "cell-based", "details": "2 μg/mouse intraperitoneal, all DNP-OVA concentrations examined, 48 hours", "method": "Saline, α-GalCer, Lipo-(−) or Lipo-αGC (2 μg/mouse) was intraperitoneally administered in BDF1 mice, after 3 days, which were primarily immunized with DNP-OVA and alum. After 7 days, the spleen was removed, and CD4^+ T cells were prepared using magnetic microbeads (Miltenyi). Subsequently, antigen presenting cells were prepared by irradiating spleen whole cells from the normal BDF1 mouse with radiation of 20 Gy. The CD4^+ T cells at 2×10^5 and the antigen presenting cells at 2×10^5 pulsed with DNP-OVA suspended in 200 μL of the medium were placed in one well of the 96-well U bottom culture plate, and cultured in the incubator containing 5% CO2 at 37° C. After 48 hours, cell proliferation was assayed by MTT method (Promega #G4000)."}, "IgE antibody production [5]": {"system": "IgE antibody production", "details": "same experiment, mice deleting the Vα14-NKT cells; cited from earlier work"}, "antibody production [6]": {"system": "antibody production", "assay": "In vivo antibody production system using IL-10-deficient mice", "design": "species or system IL-10-deficient mice with C57BL/6 background", "details": "2 μg/mouse intraperitoneal 3 days before immunization, day 14", "method": "Saline, α-GalCer, Lipo-(−) or Lipo-αGC (2 μg/mouse) was intraperitoneally administered in C57BL/6 mice (5 mice/group), after 3 days, which were primarily immunized with DNP-OVA and alum. On the 14th day after the primary immunization, the blood was collected from the orbital venous plexus, and antibody titers of ant-DNP-IgG1, anti-DNP-IgE and anti-DNP-IgG2a in the plasma were measured by ELISA. […] The same experiment was performed using the IL-10-deficient mice with C57BL/6 background."}, "[7]": {"system": "immunopotentiation and anti-tumor effects", "details": "cited from earlier work"}, "spleen CD11c+ DC": {"system": "spleen CD11c+ DC", "assay": "In vitro activity of ligand-containing liposome for dendritic cells: cytokine production", "type": "cell-based, BALB/c or C57BL/6 mouse", "details": "liposome composition 1 μg/mL, 48 hours, ELISA", "method": "Collagenase D (1 mg/mL, Roche) was injected into spleen from BALB/c or C57BL/6 mouse, which was then incubated in a CO2 incubator for 45 minutes. Subsequently, cells were collected from the spleen, suspended in 3 mL of HistoDenz (14.1%, SIGMA), and then X-VIVO 15 (Takara Bio) containing 50 μM 2-mercaptoethanol (2ME) was overlaid thereon. After centrifuging at 1,500 rpm for 5 minutes, the cells in an intermediate layer were collected and incubated in X-VIVO 15 medium containing 50 μM 2ME, 0.5% fetal calf serum and 20 ng/mL rmGM-CSF (Pharmingen) in the CO2 incubator for one and a half hours. After pipetting gently, the suspended cells were removed, the X-VIVO 15 medium containing 50 μM 2ME, 0.5% fetal calf serum and 20 ng/mL rmGM-CSF (Pharmingen) was added, and the cells were incubated in the CO2 incubator for 18 hours. The suspended cells were collected, and the cells bound to anti-CD11c antibody-magnetic microbeads (Miltenyi) were collected to render spleen CD11c^+ DC. The CD11c^+ DC at 1×10^4 cells were suspended in 200 μL of RPMI medium containing 10% fetal calf serum in a 96-well round bottom microtiter plate, the liposome composition at a final concentration of 1 μg/mL was added thereto, and the plate was incubated in the incubator containing 5% CO^2 at 37° C. After 48 hours, culture supernatants were collected, and levels of IFN-α, IL-10 and IL-12 were measured by ELISA (FIGS. 1 and 2). The levels of IL-10 and IFN-α were high whereas the levels of IL-12 were low in Lipo-β and Lipo-Imq groups. Conversely, in Lipo-β-CpG and Lipo-Imq-CpG groups, the levels of IL-10 and IFNα were low whereas the levels of IL-12 were high. […] In the same evaluation method, the production levels of IL-10 in CD11c^+ DC by Lipo-Imq-βGC were measured."}, "IgE": {"system": "IgE", "sequence (P01854 1-425 limits assumed)": "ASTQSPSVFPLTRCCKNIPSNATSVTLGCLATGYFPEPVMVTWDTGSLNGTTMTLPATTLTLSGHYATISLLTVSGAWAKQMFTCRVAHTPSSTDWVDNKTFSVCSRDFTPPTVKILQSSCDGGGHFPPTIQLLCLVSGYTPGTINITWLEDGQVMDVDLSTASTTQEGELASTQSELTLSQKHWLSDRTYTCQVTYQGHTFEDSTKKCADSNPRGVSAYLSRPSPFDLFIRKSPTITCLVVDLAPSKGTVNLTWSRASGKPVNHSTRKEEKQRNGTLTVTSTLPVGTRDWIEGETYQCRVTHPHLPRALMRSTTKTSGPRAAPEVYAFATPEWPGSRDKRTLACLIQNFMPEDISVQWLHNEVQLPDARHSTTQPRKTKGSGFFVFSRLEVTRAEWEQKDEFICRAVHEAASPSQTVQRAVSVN", "details": "patients with atopic asthma; cited from earlier work"}, "[8]": {"details": "in the presence of anti-CD1d neutralization antibody 10 μg/mL"}}, "data": [{"compound": "CCCCCCCCCCCCCCCCCCCCCCCCCC(=O)N[C@@H](CO[C@H]1O[C@H](CO)[C@H](O)[C@H](O)[C@H]1O)[C@H](O)[C@H](O)CCCCCCCCCCCCCC", "note": "[α-GalCer, α-Galactosyl ceramide]", "values": [{"measurement": "cytokine production of both IFN-γ and IL-4", "setting": "NKT cells", "value": "induces"}, {"measurement": "production of IgE antibody induced by DNP-OVA and alum", "setting": "IgE antibody production [1]", "value": "inhibited"}, {"measurement": "changes of total IgG1, Lipo-αGC group versus α-GalCer or Lipo-(−) group", "setting": "antibody production [2]", "value": "nearly equivalent"}, {"measurement": "changes of total IgG2a, Lipo-αGC group versus α-GalCer or Lipo-(−) group", "setting": "antibody production [2]", "value": "nearly equivalent"}, {"measurement": "IFN-γ in the culture supernatant", "setting": "[3]", "value": "not detected"}, {"measurement": "IL-4 in the culture supernatant", "setting": "[3]", "value": "not detected"}, {"measurement": "IL-10 in the culture supernatant", "setting": "[3]", "value": "not detected"}, {"measurement": "level of IFN-γ in culture supernatant, Lipo-αGC group versus αGalCer group", "setting": "spleen whole cells; 100 ng/mL, 2 days, ELISA", "value": "equivalent"}, {"measurement": "level of IL-4 in culture supernatant, Lipo-αGC group versus αGalCer group", "setting": "spleen whole cells; 100 ng/mL, 2 days, ELISA", "value": "equivalent"}, {"measurement": "IFN-γ in the culture supernatant", "setting": "spleen whole cells; [8]", "value": "not detected"}, {"measurement": "IL-4 in the culture supernatant", "setting": "spleen whole cells; [8]", "value": "not detected"}, {"measurement": "IL-10 in the culture supernatant", "setting": "spleen whole cells; [8]", "value": "not detected"}, {"measurement": "number of CD45RBlowCD11chigh cells in the spleen", "setting": "[4]", "value": "more than in the mouse administered with Lipo-αGC"}, {"measurement": "ratio of CD45RBhighCD11clow cells versus ratio of CD45RBlowCD11chigh cells", "setting": "[4]", "value": "reversed"}, {"measurement": "symptoms in type I diabetes model", "setting": "type I diabetes model", "value": "symptomatic improvement was observed"}, {"measurement": "proliferation of CD4+ T cells in response to DNP-OVA", "setting": "spleen CD4+ T cells", "value": "highly proliferated"}, {"measurement": "production of IgE antibody", "setting": "IgE antibody production [5]", "value": "not inhibited"}, {"measurement": "inhibitory effect on the antibody production", "setting": "antibody production [6]", "value": "no inhibitory effect"}]}, {"compound": "β-glycosyl ceramide", "values": [{"measurement": "activity compared with immunopotentiation and anti-tumor effects of α-galactosyl ceramide compound", "setting": "[7]", "value": "much lower activity"}]}, {"compound": "ceramide β-D-galactoside [β-GalCer]", "values": [{"measurement": "level of IFN-α in culture supernatant", "setting": "spleen CD11c+ DC", "value": "not detected or was very low"}, {"measurement": "level of IL-10 in culture supernatant", "setting": "spleen CD11c+ DC", "value": "not detected or was very low"}, {"measurement": "level of IL-12 in culture supernatant", "setting": "spleen CD11c+ DC", "value": "not detected or was very low"}, {"measurement": "activity compared with immunopotentiation and anti-tumor effects of α-galactosyl ceramide compound", "setting": "[7]", "value": "much lower activity"}]}, {"compound": "rhuMAb-E25: humanized anti-IgE antibody (Genentech Inc.)", "values": [{"measurement": "effectiveness in clinical trials", "setting": "IgE", "value": "highly effective"}]}]}
